Laboratory results: US20220249463A1, “METHODS OF ALTERING CARDIAC REMODELING USING COMPOUNDS THAT PROMOTE GLUCOSE OXIDATION” (IMBRIA PHARMACEUTICALS, INC., priority 2019, published 2022)

Test: Stability of CV-8972 in aqueous solution at different concentrations and pH
Assay type: physicochemical
Description: The stability of CV-8972 was analyzed. Aqueous samples containing CV-8972 at different concentrations and pH were incubated for various periods and analyzed.
Form A of CV-8972 were analyzed for stability in aqueous solution. Aqueous samples containing CV-8972 at different concentrations and pH were incubated for various periods and analyzed.

[1] = 276-MBA-172 2 mg/mL pH 6 (Form A), 0 hrs, pH 6.1
[2] = 276-MBA-172 2 mg/mL pH 6 (Form A), 1 hrs, pH 6.1
[3] = 276-MBA-172 2 mg/mL pH 6 (Form A), 4 hrs, pH 6.1
[4] = 276-MBA-172 2 mg/mL pH 6 (Form A), 6 hrs, pH 6.1
[5] = 276-MBA-172 2 mg/mL pH 7 (Form A), 0 hrs, pH 6.7
[6] = 276-MBA-172 2 mg/mL pH 7 (Form A), 1 hrs, pH 6.8
[7] = 276-MBA-172 2 mg/mL pH 7 (Form A), 4 hrs, pH 6.7
[8] = 276-MBA-172 2 mg/mL pH 7 (Form A), 6 hrs, pH 6.7
[9] = 276-MBA-172 2 mg/mL pH 7 (Form A), 22 hrs, pH 6.8
[10] = 276-MBA-172 10 mg/mL pH 6 (Form A), 0 hrs, pH 6.6
[11] = 276-MBA-172 10 mg/mL pH 6 (Form A), 1 hrs, pH 6.8
[12] = 276-MBA-172 10 mg/mL pH 6 (Form A), 4 hrs, pH 6.8
[13] = 276-MBA-172 10 mg/mL pH 6 (Form A), 6 hrs, pH 6.7
[14] = 276-MBA-172 10 mg/mL pH 6 (Form A), 22 hrs, pH 6.7
[15] = 276-MBA-172 10 mg/mL pH 7 (Form A), 0 hrs, pH 7.1
[16] = 276-MBA-172 10 mg/mL pH 7 (Form A), 1 hrs, pH 7.2
[17] = 276-MBA-172 10 mg/mL pH 7 (Form A), 4 hrs, pH 7.1
[18] = 276-MBA-172 10 mg/mL pH 7 (Form A), 6 hrs, pH 7.1
[19] = 289-MBA-15-A 2 mg/mL pH 6 (Form B), 0 hrs, pH 6.9
[20] = 289-MBA-15-A 2 mg/mL pH 6 (Form B), 1 hrs, pH 6.9
[21] = 289-MBA-15-A 2 mg/mL pH 6 (Form B), 4 hrs, pH 6.8
[22] = 289-MBA-15-A 2 mg/mL pH 6 (Form B), 6 hrs, pH 6.8

## COc1ccc(CN2CCN(CCOC(=O)c3cccnc3)CC2)c(OC)c1OC [CV-8972, 2-(4-(2,3,4-trimethoxybenzyl)piperazin-1-yl)ethyl nicotinate]
[1]
  Retention Time 4.2: 1.29
  Retention Time 5.6: 98.01
[2]
  Decrease in purity of CV-8972 between time points: 0.79
  Retention Time 2.2: 1.5
  Retention Time 4.2: 1.28
  Retention Time 5.6: 97.22
[3]
  Decrease in purity of CV-8972 between time points: 0.21
  Retention Time 2.2: 2.03
  Retention Time 4.2: 0.95
  Retention Time 5.6: 97.01
[4]
  Decrease in purity of CV-8972 between time points: 0.5
  Retention Time 2.2: 2.47
  Retention Time 4.2: 1.02
  Retention Time 5.6: 96.51
[5]
  Retention Time 2.2: 1.42
  Retention Time 4.2: 1.05
  Retention Time 5.6: 97.53
[6]
  Decrease in purity of CV-8972 between time points: 2.47
  Retention Time 2.2: 3.31
  Retention Time 4.2: 1.06
  Retention Time 4.7: 0.57
  Retention Time 5.6: 95.06
[7]
  Decrease in purity of CV-8972 between time points: 1.36
  Retention Time 2.2: 4.21
  Retention Time 2.6: 0.58
  Retention Time 4.2: 0.82
  Retention Time 4.7: 0.69
  Retention Time 5.6: 93.7
[8]
  Decrease in purity of CV-8972 between time points: 1.58
  Retention Time 2.2: 5.63
  Retention Time 2.6: 0.67
  Retention Time 4.2: 0.74
  Retention Time 4.7: 0.85
  Retention Time 5.6: 92.12
[9]
  Decrease in purity of CV-8972 between time points: 1.05
  Retention Time 2.2: 6.26
  Retention Time 2.6: 0.85
  Retention Time 4.2: 0.85
  Retention Time 4.7: 0.98
  Retention Time 5.6: 91.07
[10]
  Retention Time 2.2: 3.39
  Retention Time 2.6: 0.6
  Retention Time 4.2: 0.23
  Retention Time 4.7: 0.54
  Retention Time 5.6: 95.24
[11]
  Decrease in purity of CV-8972 between time points: 1.81
  Retention Time 2.2: 4.81
  Retention Time 2.6: 0.81
  Retention Time 4.2: 0.23
  Retention Time 4.7: 0.73
  Retention Time 5.6: 93.43
[12]
  Decrease in purity of CV-8972 between time points: 1.61
  Retention Time 2.2: 5.72
  Retention Time 2.6: 0.9
  Retention Time 4.2: 0.21
  Retention Time 4.7: 0.83
  Retention Time 5.6: 91.82
[13]
  Decrease in purity of CV-8972 between time points: 0.02
  Retention Time 2.2: 6.45
  Retention Time 2.6: 0.81
  Retention Time 4.7: 0.93
  Retention Time 5.6: 91.8
[14]
  Decrease in purity of CV-8972 between time points: 2.14
  Retention Time 2.2: 7.38
  Retention Time 2.6: 1.54
  Retention Time 4.2: 0.13
  Retention Time 4.7: 1.11
  Retention Time 5.6: 89.66
[15]
  Retention Time 2.2: 5.9
  Retention Time 2.6: 0.94
  Retention Time 4.2: 0.22
  Retention Time 4.7: 0.78
  Retention Time 5.6: 92.85
[16]
  Decrease in purity of CV-8972 between time points: 3.8
  Retention Time 2.2: 8.12
  Retention Time 2.6: 1.45
  Retention Time 4.2: 0.21
  Retention Time 4.7: 1.17
  Retention Time 5.6: 89.05
[17]
  Decrease in purity of CV-8972 between time points: 2.25
  Retention Time 2.2: 10.14
  Retention Time 2.6: 1.48
  Retention Time 4.2: 0.13
  Retention Time 4.7: 1.46
  Retention Time 5.6: 86.8
[18]
  Decrease in purity of CV-8972 between time points: 2.01
  Retention Time 2.2: 11.63
  Retention Time 2.6: 1.78
  Retention Time 4.2: 0.13
  Retention Time 4.7: 1.67
  Retention Time 5.6: 84.79
[19]
  Retention Time 2.2: 1.33
  Retention Time 4.2: 1.19
  Retention Time 5.6: 97.48
[20]
  Decrease in purity of CV-8972 between time points: 2.38
  Retention Time 2.2: 3.73
  Retention Time 4.2: 1.17
  Retention Time 5.6: 95.1
[21]
  Decrease in purity of CV-8972 between time points: 2.65
  Retention Time 2.2: 5.25
  Retention Time 2.6: 0.67
  Retention Time 4.2: 0.84
  Retention Time 4.7: 0.79
  Retention Time 5.6: 92.45
[22]
  Decrease in purity of CV-8972 between time points: 1.8
  Retention Time 2.2: 6.63
  Retention Time 2.6: 0.9
  Retention Time 4.2: 0.83
  Retention Time 4.7: 0.99
  Retention Time 5.6: 90.65
289-MBA-15-A 2 mg/mL pH 6 (Form B), 22 hrs, pH 6.7
  Decrease in purity of CV-8972 between time points: 1.5
